In patent US20250387417A1, “CANNABINOID DERIVATIVES AND COMPOSITIONS COMPRISING SAME” (CANNASOUL ANALYTICS LTD., priority 2022, published 2025):

Test system: MCP-1 secretion
Experiment: Acute inflammation: LPS-induced MCP-1 secretion in human colon epithelial cells (ELISA)
Format: cell-based
Conditions: 10 ng/ml LPS, 24 hours, ELISA of supernatants, FIG. 1
Method: The efficacy of the compounds according to certain embodiments of the present invention in the treatment of IBD was assessed. Human colon epithelial cells were thawed and cultured in suitable media at a final concentration of 4×10^5 cells per mL. The cells were then cultured and tested in triplicates for 48 hours. Following incubation, controls and test compounds were diluted in culture media to achieve the final assay concentration. Cells were treated with 10 ng/ml LPS with or without positive control/test compounds and incubated for 24 hours. Rosiglitazone at 7.2 μg/ml served as a positive control. Following incubation, the supernatants were collected, and the secretion levels of MCP-1 were measured by ELISA (R&D systems). Optical density was determined by ‘CLARIOStar-plus’® plate-reader. The chemokine concentration (pg/ml) was calculated using a standard curve.

## CCCCCCc1cc(O)c(C/C=C(\C)CCC=C(C)C)c(O)c1OC(C)=O [(E)-3-(3,7-dimethylocta-2,6-dien-1-yl)-6-hexyl-2,4-dihydroxyphenyl acetate]
  inhibition of MCP-1 secretion: effectively inhibited MCP-1 secretion in a statistically significant manner

## CCCCCc1cc(O)c(CC=C(C)C)c(O)c1OC(C)=O [Compound 15]
  inhibition of MCP-1 secretion: effectively inhibited MCP-1 secretion in a statistically significant manner
  inhibitory effect on MCP-1 secretion compared among the test compounds: most pronounced inhibitory effect on MCP-1 secretion

## CCCCCc1cc(O)c(C2C=C(C)CCC2C(C)(C)O)c(O)c1OC(C)=O (stereo not shown) [Compound 17]
  inhibition of MCP-1 secretion: effectively inhibited MCP-1 secretion in a statistically significant manner
